Reference: ChEMBL document CHEMBL1122063, “Renin inhibitors. Substitution of the leucyl residues of Leu-Leu-Val-Phe-OCH3 with 3-amino-2-hydroxy-5-methylhexanoic acid” (J Med Chem, 1982)

molecular target: T1, Renin (Homo sapiens, UniProt P00797); assay: Competitive inhibition of renin from human amniotic […]
T1 sequence (P00797 whole entry): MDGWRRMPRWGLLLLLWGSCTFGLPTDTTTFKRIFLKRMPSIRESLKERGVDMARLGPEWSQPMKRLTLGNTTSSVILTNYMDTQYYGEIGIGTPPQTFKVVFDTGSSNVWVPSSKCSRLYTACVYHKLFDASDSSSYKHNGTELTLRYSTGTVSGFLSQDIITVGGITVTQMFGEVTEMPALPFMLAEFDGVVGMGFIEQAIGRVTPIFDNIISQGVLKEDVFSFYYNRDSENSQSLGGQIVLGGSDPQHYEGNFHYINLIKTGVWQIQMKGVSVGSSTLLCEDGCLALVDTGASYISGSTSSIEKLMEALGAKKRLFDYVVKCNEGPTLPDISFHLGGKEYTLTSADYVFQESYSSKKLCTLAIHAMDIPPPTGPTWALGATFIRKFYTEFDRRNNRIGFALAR

`COC(=O)[C@H](Cc1ccccc1)NC(=O)[C@@H](NC(=O)[C@@H](O)[C@@H](N)CC(C)CC(=O)[C@@H](N)CC(C)C)C(C)C` (stereo partly specified) and `COC(=O)[C@H](Cc1ccccc1)NC(=O)[C@@H](NC(=O)[C@H](O)[C@@H](N)CC(C)CC(=O)[C@@H](N)CC(C)C)C(C)C` (stereo partly specified) are within 1.5-fold of each other in Ki: 520 µM for the first, 440 µM for the second.

Going from `COC(=O)[C@H](Cc1ccccc1)NC(=O)[C@@H](NC(=O)[C@H](CC(C)C)NC(=O)[C@@H](O)[C@@H](N)CC(C)C)C(C)C` to `COC(=O)[C@H](Cc1ccccc1)NC(=O)[C@@H](NC(=O)[C@@H](CC(C)C)NC(=O)[C@H](O)[C@@H](N)CC(C)C)C(C)C`, the Ki rises from 960 µM to 1520 µM (1.6-fold). The first binds more tightly here.

Going from `COC(=O)[C@H](Cc1ccccc1)NC(=O)[C@@H](NC(=O)[C@@H](O)[C@@H](N)CC(C)C)C(C)C` to `COC(=O)[C@H](Cc1ccccc1)NC(=O)[C@@H](NC(=O)[C@H](O)[C@@H](N)CC(C)C)C(C)C`, the Ki falls from 2440 µM to 1010 µM (2.4-fold). The second binds more tightly here.
